According to patent US20250154121A1, “CYCLIC(ALKYL)(AMINO)ALKOXY-SUBSTITUTED ARYL-PYRONE COMPOUND AND USE THEREOF” (priority 2022, published 2025):
Values joined by “and” are separate entries in the source; they are usually repeats but may differ in a detail not shown here. Identical values can stand only once. Like-named read-outs stand apart in the source and are kept apart here.

Assays:
[1] = system: Sendai strain of parainfluenza virus; format: in vivo
[2] = system: Influenza A (H1N1) virus FM1 strain; experiment: Mouse pneumonia model infected with influenza A (H1N1) virus FM1 strain (lung index); format: in vivo, ICR mice
Procedure: ICR mice were taken and randomly divided into: normal control group, model control group, ribavirin control group, compound 4, compound F1, compound F2, and compound F3 according to their weight class, and each drug was given in two dosage groups (10 mice in each group). Except for the normal control group, mice were slightly anesthetized with ether and infected with 15 LD50 H1N1 influenza virus liquid FM1 strain by nasal drops (30 μl per animal). The administration was started on the day of infection at 0.2 ml/10 g by gavage each time once a day for 4 days, and the normal control and model control groups were gavaged with distilled water under the same conditions. The mice were weighed and dissected on Day 5, and the lung was weighed to calculate lung index and lung index inhibition. The results were statistically processed using t-test for comparison between groups.
(§1) ICR mice were taken and randomly divided by weight class: normal control group, model control group, oseltamivir control group, compound 4, compound F4, compound F5, compound 5, and compound 7 according to their weight class, and each drug was given in two dosage groups (10 mice in each group). Except for the normal control group, mice were slightly anesthetized with ether and infected with 15 LD50 H1N1 influenza virus liquid (FM1/PR8 strain) by nasal drops (30 μl per each animal). The administration was started on the day of infection at 0.2 ml/10 g by gavage each time once a day for 4 days, and the normal control and model control groups were gavaged with distilled water under the same conditions. The mice were weighed and dissected on Day 5, and lung was weighed to calculate lung index and lung index inhibition. The results were statistically processed using t-test for comparison between groups.
(§2) ICR mice were taken and randomly divided into 9 groups according to the body weight: a normal control group, model control group, oseltamivir control group, and two dosage groups of Compound 9, Compound 12 and Compound 2, 10 mice in each group. Except the normal control group, mice were slightly anesthetized with ether and infected with 15 LD50 H1N1/PR8 influenza virus liquid by nasal drops at 30 μl per mouse. The administration was started on the day of infection, at 0.2 ml/10 g each time by gavage once a day for 4 days, and the normal control and model control groups were gavaged with distilled water under the same conditions. The mice were weighed and dissected on Day 5, and lungs were weighed to calculate lung index and lung index inhibition. The results were statistically processed using t-test for comparison between groups.

[3] = Acute toxicity test in mice (single gavage, 14-day observation); format: in vivo; conditions: for mortality rate of animals: 14 days observation
Procedure: Seventy ICR mice, weighing 17-21 g, were randomly divided into 7 groups according to fasting body weight: a normal control group and 6 dose groups of 475, 633, 844, 1125, 1500 and 2000 mg of the test drug (compound 4)/kg, 10 mice in each group, 50/50 male and female. After fasting for about 15 h, each dosing group was administered once by gavage in a volume of 40 ml/kg, and the control group was gavaged with an equal volume of 0.5% sodium carboxymethylcellulose solution once/day, and the animals were observed continuously for 14 days after administration of the drug to observe the death of the animals.
Thirty ICR mice, weighing 17-21 g, were randomly divided into three groups according to their fasting body weight: a normal control group and 2000 mg and 4000 mg of test drug (Compound 12)/kg dose group, 10 mice in each group, 50/50 male and female. After fasting for about 15 h, each dosing group was given the drug once by gavage in a volume of 40 ml/kg, and the control group was given an equal volume of 0.5% sodium carboxymethylcellulose solution by gavage once/day, and the deaths of the animals were observed continuously for 14 days after the administration of the drug.

[4] = system: Human Coronavirus 229E (HCoV-229E); experiment: animal or person; format: in vivo
human coronavirus OC43 = format: in vivo; conditions: Table 6 (Example 17)
ACE2 receptor = ACE2 receptor (Homo sapiens, UniProt Q9BYF1); experiment: ACE2-293T/CMC cell membrane chromatography binding; conditions: ACE2-293T/CMC column
ACE2 receptor, sequence (Q9BYF1 18-805): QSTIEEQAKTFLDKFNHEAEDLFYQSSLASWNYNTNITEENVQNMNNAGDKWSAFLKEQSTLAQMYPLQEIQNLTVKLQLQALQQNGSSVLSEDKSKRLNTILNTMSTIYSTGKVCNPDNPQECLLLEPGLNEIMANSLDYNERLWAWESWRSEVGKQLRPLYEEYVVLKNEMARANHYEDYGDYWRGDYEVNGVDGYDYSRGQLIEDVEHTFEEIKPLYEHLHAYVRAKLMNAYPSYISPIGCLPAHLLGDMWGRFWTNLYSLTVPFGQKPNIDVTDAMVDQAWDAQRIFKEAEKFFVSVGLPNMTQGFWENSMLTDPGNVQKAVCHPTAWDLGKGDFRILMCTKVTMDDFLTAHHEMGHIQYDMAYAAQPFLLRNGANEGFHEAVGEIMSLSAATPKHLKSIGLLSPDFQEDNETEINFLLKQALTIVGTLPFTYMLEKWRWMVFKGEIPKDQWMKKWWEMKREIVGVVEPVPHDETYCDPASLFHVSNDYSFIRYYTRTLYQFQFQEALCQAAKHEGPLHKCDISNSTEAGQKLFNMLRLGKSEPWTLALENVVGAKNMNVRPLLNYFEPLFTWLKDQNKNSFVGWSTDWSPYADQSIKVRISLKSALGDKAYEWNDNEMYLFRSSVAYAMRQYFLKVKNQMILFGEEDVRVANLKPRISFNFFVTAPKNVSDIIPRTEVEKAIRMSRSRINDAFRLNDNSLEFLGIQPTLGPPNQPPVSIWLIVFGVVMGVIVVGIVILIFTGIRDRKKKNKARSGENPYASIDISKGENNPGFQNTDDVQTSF

SARS-CoV-2 = experiment: Antiviral CPE assay against SARS-CoV-2 in VeroE6 cells; format: cell-based; conditions: 100 TCID50, read-out: Inhibition rate (%) of viral CPE
[5] = system: Influenza A (H1N1) virus PR8 strain; experiment: Mouse pneumonia model infected with influenza A (H1N1) virus PR8 strain (lung index); format: in vivo, ICR mice; conditions: Table 3 (Example 14)
Procedure: as §1, §2

[6] = Table 7 (Example 18), 3.75 mg/kg/d gavage for 4 days
[7] = Table 7 (Example 18), 7.5 mg/kg/d gavage for 4 days
[8] = Table 7 (Example 18), 15 mg/kg/d gavage for 4 days
[9] = Table 11 (Example 24), 7.5 mg/kg/d gavage for 4 days
[10] = Table 11 (Example 24), 15 mg/kg/d gavage for 4 days
[11] = dose groups of 1125 mg drug/kg and above
[12] = 7.5 mg/kg gavage once a day for 4 days

Structure (SMILES): O=c1c(-c2ccccc2)coc2cc(OCCNC3CC3)ccc12 [Compound 4]
- inhibition rate % [1, 6]: 18.11%
- lung index [1, 6]: 0.73 ± 0.07 lung weight/100 g body weight
- inhibition rate % [1, 7]: 26.20%
- lung index [1, 7]: 0.72 ± 0.05 lung weight/100 g body weight
- inhibition rate % [1, 8]: 46.39%
- lung index [1, 8]: 0.70 ± 0.05 lung weight/100 g body weight
- inhibition rate % [1, 9]: 54.48%
- lung index [1, 9]: 0.77 ± 0.04 Lung weight * 100/body weight
- inhibition rate % [1, 10]: 45.45%
- lung index [1, 10]: 0.78 ± 0.04 Lung weight * 100/body weight
- inhibition in vivo at 25 mg/kg ([2]; Influenza A virus, H1N1, po, 96 h, Table 1 (Example 13), 25 mg/kg gavage once a day for 4 days, read-out: inhibition rate (%)): 23.7%
- inhibition in vivo at 50 mg/kg ([2]; Influenza A virus, H1N1, po, 96 h, Table 1 (Example 13), 50 mg/kg gavage once a day for 4 days, read-out: inhibition rate (%)): 39.3%
- inhibition in vivo at 20 mg/kg ([2]; Influenza A virus, H1N1, po, 96 h, Table 2 (Example 14), 20 mg/kg gavage once a day for 4 days, read-out: inhibition rate (%)): 15.1%
- inhibition in vivo at 40 mg/kg ([2]; Influenza A virus, H1N1, po, 96 h, Table 2 (Example 14), 40 mg/kg gavage once a day for 4 days, read-out: inhibition rate (%)): 54%
- lung index ([2]; Table 1 (Example 13), 25 mg/kg gavage once a day for 4 days): 1.09 ± 0.13
- lung index ([2]; Table 1 (Example 13), 50 mg/kg gavage once a day for 4 days): 1.01 ± 0.12
- lung index ([2]; Table 2 (Example 14), 20 mg/kg gavage once a day for 4 days): 1.04 ± 0.12
- lung index ([2]; Table 2 (Example 14), 40 mg/kg gavage once a day for 4 days): 0.89 ± 0.20
- mortality rate of animals ([3]; 475 mg/kg single gavage): 0%
- mortality rate of animals ([3]; 633 mg/kg single gavage): 0%
- mortality rate of animals ([3]; 844 mg/kg single gavage): 0%
- mortality rate of animals ([3]; 1125 mg/kg single gavage): 20%
- mortality rate of animals ([3]; 1500 mg/kg single gavage): 80%
- mortality rate of animals ([3]; 2000 mg/kg single gavage): 100%
- LD50 ([3]; Bliss method, single gavage, mice): 1299.054 mg of drug/kg
- maximum non-adverse effect dose ([3]; both, ICR, mouse, in vivo, 14 days): 475 mg of drug/kg
- peak of the deaths after the drug [3, 11]: 24 to 48 h
- time of animal deaths after the drug [3, 11]: ≤ 4 days
- maximum non-lethal dose ([3]; single gavage, mice): 844 mg of drug/kg
- inhibition in vivo at 40 mg/kg/day ([4]; Human coronavirus 229E, in Mus musculus, po, 96 h, Table 4 (Example 15), 40 mg/kg/d gavage for 4 days, read-out: inhibition rate (%)): 41.9%
- inhibition in vivo at 50 mg/kg/day ([4]; Human coronavirus 229E, in Mus musculus, po, 96 h, Table 4 (Example 15), 50 mg/kg/d gavage for 4 days, read-out: inhibition rate (%)): 41%
- inhibition in vivo at 7.5 mg/kg/day ([4]; Human coronavirus 229E, in Mus musculus, po, 96 h, Table 5 (Example 16), 7.5 mg/kg/d gavage for 4 days, read-out: inhibition rate (%)): 44.3%
- inhibition in vivo at 15 mg/kg/day ([4]; Human coronavirus 229E, in Mus musculus, po, 96 h, Table 5 (Example 16), 15 mg/kg/d gavage for 4 days, read-out: inhibition rate (%)): 76.5%
- inhibition in vivo at 30 mg/kg/day ([4]; Human coronavirus 229E, in Mus musculus, po, 96 h, Table 5 (Example 16), 30 mg/kg/d gavage for 4 days, read-out: inhibition rate (%)): 86.5%
- inhibition in vivo at 7.5 mg/kg/day ([4]; Human coronavirus 229E, in Mus musculus, po, 96 h, Table 10 (Example 23), 7.5 mg/kg/d gavage for 4 days, read-out: inhibition rate (%)): 50%
- lung index ([4]; Table 4 (Example 15), 40 mg/kg/d gavage for 4 days): 0.76 ± 0.02 g lung weight × 100/g body weight
- lung index ([4]; Table 4 (Example 15), 50 mg/kg/d gavage for 4 days): 0.76 ± 0.08 g lung weight × 100/g body weight
- lung index ([4]; Table 5 (Example 16), 7.5 mg/kg/d gavage for 4 days): 0.71 ± 0.11 g lung weight × 100/g body weight
- lung index ([4]; Table 5 (Example 16), 15 mg/kg/d gavage for 4 days): 0.67 ± 0.08 g lung weight × 100/g body weight
- lung index ([4]; Table 5 (Example 16), 30 mg/kg/d gavage for 4 days): 0.66 ± 0.05 g lung weight × 100/g body weight
- lung index ([4]; Table 10 (Example 23), 7.5 mg/kg/d gavage for 4 days): 0.81 ± 0.03 g lung weight × 100/g body weight
- inhibition rate % (human coronavirus OC43; 3.75 mg/kg/d gavage for 4 days): 33.28%
- lung index (human coronavirus OC43; 3.75 mg/kg/d gavage for 4 days): 0.81 ± 0.08 g lung weight × 100/g body weight
- inhibition rate % (human coronavirus OC43; 7.5 mg/kg/d gavage for 4 days): 32.42%
- lung index (human coronavirus OC43; 7.5 mg/kg/d gavage for 4 days): 0.82 ± 0.05 g lung weight × 100/g body weight
- inhibition rate % (human coronavirus OC43; 15 mg/kg/d gavage for 4 days): 47.43%
- lung index (human coronavirus OC43; 15 mg/kg/d gavage for 4 days): 0.79 ± 0.10 g lung weight × 100/g body weight
- Kd (ACE2 receptor): 1070 nM
- inhibition at 1.95 µg/mL (SARS-CoV-2; Severe acute respiratory syndrome coronavirus 2, Vero C1008, drug concentration 1.95 μg/mL): 6.67 ± 2.89%
- inhibition at 3.9 µg/mL (SARS-CoV-2; Severe acute respiratory syndrome coronavirus 2, Vero C1008, drug concentration 3.9 μg/mL): 25 ± 5%
- inhibition at 7.8 µg/mL (SARS-CoV-2; Severe acute respiratory syndrome coronavirus 2, Vero C1008, drug concentration 7.8 μg/mL): 76.7 ± 2.89%
- inhibition at 15.6 µg/mL (SARS-CoV-2; Severe acute respiratory syndrome coronavirus 2, Vero C1008, drug concentration 15.6 μg/mL): 90 ± 5%
- inhibition rate % [5, 12]: 23.91%
- lung index [5, 12]: 0.98 ± 0.11
- lung index ([5]; 15 mg/kg gavage once a day for 4 days): 0.83 ± 0.10
- inhibition rate % ([5]; 15 mg/kg gavage once a day for 4 days, 15 mg/kg): 54.04% and 60.27%
